Test results taken from the CheMixHub viscosity set.
± gives the uncertainty stated by the source.

Assay: xn = mol fraction of the nth substance listed

## CNc1ccccc1 + CS(C)=O
303 K, 101.33 kPa, x1 = 0.101
  viscosity: 1.844 ± 0.047 mPa·s
303 K, 101.33 kPa, x1 = 0.2001
  viscosity: 1.861 ± 0.047 mPa·s
303 K, 101.33 kPa, x1 = 0.3007
  viscosity: 1.939 ± 0.049 mPa·s
303 K, 101.33 kPa, x1 = 0.3986
  viscosity: 2.046 ± 0.052 mPa·s
303 K, 101.33 kPa, x1 = 0.4987
  viscosity: 2.03 ± 0.051 mPa·s
303 K, 101.33 kPa, x1 = 0.6003
  viscosity: 2.106 ± 0.053 mPa·s
303 K, 101.33 kPa, x1 = 0.6987
  viscosity: 2.12 ± 0.054 mPa·s
303 K, 101.33 kPa, x1 = 0.8007
  viscosity: 2.057 ± 0.052 mPa·s
303 K, 101.33 kPa, x1 = 0.9015
  viscosity: 1.911 ± 0.049 mPa·s

## COC(=O)OC + CCCO
293.15 K, 101.3 kPa, x1 = 0.0508
  viscosity: 1.875 ± 0.087 mPa·s
293.15 K, 101.3 kPa, x1 = 0.0875
  viscosity: 1.683 ± 0.079 mPa·s
293.15 K, 101.3 kPa, x1 = 0.1647
  viscosity: 1.362 ± 0.065 mPa·s
293.15 K, 101.3 kPa, x1 = 0.2944
  viscosity: 1.024 ± 0.05 mPa·s
293.15 K, 101.3 kPa, x1 = 0.3858
  viscosity: 0.885 ± 0.044 mPa·s
293.15 K, 101.3 kPa, x1 = 0.544
  viscosity: 0.751 ± 0.039 mPa·s
293.15 K, 101.3 kPa, x1 = 0.6026
  viscosity: 0.716 ± 0.037 mPa·s
293.15 K, 101.3 kPa, x1 = 0.7041
  viscosity: 0.666 ± 0.035 mPa·s
293.15 K, 101.3 kPa, x1 = 0.89
  viscosity: 0.61 ± 0.033 mPa·s
293.15 K, 101.3 kPa, x1 = 0.9015
  viscosity: 0.606 ± 0.033 mPa·s
293.15 K, 101.3 kPa, x1 = 0.951
  viscosity: 0.608 ± 0.033 mPa·s
298.15 K, 101.3 kPa, x1 = 0.0517
  viscosity: 1.675 ± 0.078 mPa·s
298.15 K, 101.3 kPa, x1 = 0.0898
  viscosity: 1.493 ± 0.07 mPa·s
298.15 K, 101.3 kPa, x1 = 0.1903
  viscosity: 1.147 ± 0.056 mPa·s
298.15 K, 101.3 kPa, x1 = 0.2896
  viscosity: 0.936 ± 0.047 mPa·s
298.15 K, 101.3 kPa, x1 = 0.3944
  viscosity: 0.803 ± 0.041 mPa·s
298.15 K, 101.3 kPa, x1 = 0.498
  viscosity: 0.725 ± 0.038 mPa·s
298.15 K, 101.3 kPa, x1 = 0.5993
  viscosity: 0.673 ± 0.035 mPa·s
298.15 K, 101.3 kPa, x1 = 0.7016
  viscosity: 0.631 ± 0.034 mPa·s
298.15 K, 101.3 kPa, x1 = 0.8007
  viscosity: 0.598 ± 0.032 mPa·s
298.15 K, 101.3 kPa, x1 = 0.8994
  viscosity: 0.579 ± 0.031 mPa·s
298.15 K, 101.3 kPa, x1 = 0.949
  viscosity: 0.576 ± 0.031 mPa·s
303.15 K, 101.3 kPa, x1 = 0.0728
  viscosity: 1.404 ± 0.067 mPa·s
303.15 K, 101.3 kPa, x1 = 0.0829
  viscosity: 1.367 ± 0.065 mPa·s
303.15 K, 101.3 kPa, x1 = 0.184
  viscosity: 1.072 ± 0.052 mPa·s
303.15 K, 101.3 kPa, x1 = 0.2605
  viscosity: 0.919 ± 0.046 mPa·s
303.15 K, 101.3 kPa, x1 = 0.3758
  viscosity: 0.769 ± 0.039 mPa·s
303.15 K, 101.3 kPa, x1 = 0.4849
  viscosity: 0.685 ± 0.036 mPa·s
303.15 K, 101.3 kPa, x1 = 0.6278
  viscosity: 0.613 ± 0.033 mPa·s
303.15 K, 101.3 kPa, x1 = 0.7071
  viscosity: 0.594 ± 0.032 mPa·s
303.15 K, 101.3 kPa, x1 = 0.8061
  viscosity: 0.569 ± 0.031 mPa·s
303.15 K, 101.3 kPa, x1 = 0.9018
  viscosity: 0.554 ± 0.03 mPa·s
303.15 K, 101.3 kPa, x1 = 0.9507
  viscosity: 0.542 ± 0.03 mPa·s
313.15 K, 101.3 kPa, x1 = 0.0498
  viscosity: 1.198 ± 0.058 mPa·s
313.15 K, 101.3 kPa, x1 = 0.0973
  viscosity: 1.066 ± 0.052 mPa·s
313.15 K, 101.3 kPa, x1 = 0.1985
  viscosity: 0.86 ± 0.043 mPa·s
313.15 K, 101.3 kPa, x1 = 0.3015
  viscosity: 0.721 ± 0.037 mPa·s
313.15 K, 101.3 kPa, x1 = 0.4025
  viscosity: 0.639 ± 0.034 mPa·s
313.15 K, 101.3 kPa, x1 = 0.5021
  viscosity: 0.584 ± 0.031 mPa·s
313.15 K, 101.3 kPa, x1 = 0.6029
  viscosity: 0.546 ± 0.03 mPa·s
313.15 K, 101.3 kPa, x1 = 0.7038
  viscosity: 0.521 ± 0.029 mPa·s
313.15 K, 101.3 kPa, x1 = 0.8033
  viscosity: 0.5 ± 0.028 mPa·s
313.15 K, 101.3 kPa, x1 = 0.9073
  viscosity: 0.489 ± 0.027 mPa·s
313.15 K, 101.3 kPa, x1 = 0.951
  viscosity: 0.489 ± 0.027 mPa·s
